# Test results: patent US11541065B2, “Compositions and methods for treating brain injury” (UNM RAINFOREST INNOVATIONS, priority 2018, dated 2023)
# What was measured:
# [1] = Total plasma homocysteine after osmotic pump implantation, rats (HPLC); format: in vivo; details: male, Wistar, rat, sc, 200 mM solution (2 ml osmotic pump, flow rate 10 μl/hr), subcutaneous osmotic pump with 200 mM L-homocysteine
# Description: L-homocysteine (200 mM) was freshly prepared by alkali hydrolysis of L-homocysteine thiolactone hydrochloride followed by neutralization, and maintained in 0.02 mM of N-Tris(hydroxymethyl)methyl-2-aminoethanesulfonic acid buffer pH 7.4 as previously described (Poddar et al., 2001, Circulation, 103:2717-2723). Osmotic pumps (Alzet, 2ML1, flow rate 10 μl/hr; Durect Corp., Cupertino, Calif.) containing either 2 ml of freshly prepared 200 mM L-homocysteine (for hyperhomocysteinemia) or normal saline (for control) were surgically implanted subcutaneously on the back and posterior to the scapulae of male Wistar rats under anesthesia (2% isoflurane in medical grade oxygen). The incision was closed after implantation and the rats were allowed to recover in their cage. For both WT and GluN2A-KO mice, osmotic pumps (Alzet, 2001, flow rate 1 μl/hr; Durect Corp., Cupertino, Calif.) containing either 200 μl of freshly prepared 200 mM L-homocysteine (for hyperhomocysteinemia) or normal saline (for control) were implanted similarly.
# Blood was obtained from rats (retro-orbital) and mice (cardiac puncture) under anesthesia with 2% isoflurane in medical grade oxygen, before installation of osmotic pumps (0 day) and at various time points after installation of osmotic pumps (rats: day 3, day 5, and day 7; mice: day 3 and day 5). Blood was collected in standardized VACUTAINER venous blood collection EDTA-tubes (ThermoFisher Scientific, Inc., Waltham, Mass.) and centrifuged at 3,500 rpm for 15 minutes. The plasma obtained was analyzed for total plasma homocysteine levels using high performance liquid chromatography with post-column fluorescence detection as previously described (Gilfix et al., 1997, Clin Chem 43:687-688; Jacobsen et al., 1994, Clin Chem 40:873-881; Miller et al., 2013, Am J Clin Nutr 97:827-834).
# [2] = system: [Ca^2+]i; experiment: Intracellular Ca^2+ by Fura2 imaging, WT and GluN2A KO mouse neuronal cultures; format: cell-based, mice; details: somata and processes, L-homocysteine 50 μM, 60 min
# Description: Embryos obtained from pregnant Sprague Dawley rats (16-17-day gestation) or wild type (WT) and GluN2A KO mice (15-16-day gestation) were used to establish primary cortical neuronal cultures as previously described (Poddar and Paul, 2009, J Neurochem 110:1095-1106; Poddar and Paul, 2013, J Neurochem 124:558-570; Poddar et al., 2017, J Neurochem 142:560-573). Neurons were grown on either (a) 35-mm culture dishes (MatTek Corp., Ashland, Mass.) coated overnight with poly-D-lysine (50 μg/ml) and laminin (10 μg/ml) for Ca^2+ imaging studies, (b) poly-D-lysine-coated 60 mm dishes (Corning BIOCOAT, Corning Inc., Corning, N.Y.) for biochemical studies, or (c) poly-D-lysine-coated 4-well culture slides (Corning BIOCOAT, Corning Inc., Corning, N.Y.) for cell death assay. Neurons were maintained in culture for 12-13 days before experiment. The cells were treated with freshly prepared L-homocysteine (50 μM) in Hank's balanced salt solution containing 50 μM of glycine (Lipton et al., 1997, Proceedings of the National Academy of Sciences of the United States of America 94:5923-5928; Poddar and Paul, 2009, J Neurochem 110:1095-1106; Poddar and Paul, 2013, J Neurochem 124:558-570; Poddar et al., 2017, J Neurochem 142:560-573) for the specified time periods. In a parallel series of experiments, cells were treated with glutamate (50 μM) for the specified time periods. Cells were then processed for live cell imaging, immunoblotting or cell death assay. In some experiments EGTA, DL-AP5, NVP-AAM077, Ro 25-6981 or PD98059 was added 15 minutes prior to L-homocysteine or glutamate treatment.
# [Ca^2+]i in neurons was determined using the fluorescent indicator, Fura2-AM. […] Fluorescence excitations (340 and 380 nm) were provided with Sutter LB-LS/30 Lambda xenon arc lamp and fluorescence emissions (510 nm) were captured using a CCD camera (Teledyne Photometries, Tucson, Ariz.). […] Maximum and minimum fluorescence ratios were determined from Fura2 loaded cells treated with ionomycin (5 μM) in calcium containing medium (2 mM) or in calcium free media with EGTA (0.5 mM).
# [3] = system: PGE2; experiment: PGE2 level in ischemic brain (ELISA); format: in vivo, Wistar rats; details: HHcy rats, MCAO 60 minutes, six hours of reperfusion, NVP-AAM077 1.2 mg/kg intravenous at onset of insult
# Description: Wistar rats were made hyperhomocysteinemic using osmotic pump containing L-homocysteine. Animals were hyperhomocysteinemic (19-23 μM) within three days of pump implantation. Ischemic stroke was induced by MCAO for 60 minutes followed by reperfusion for six hours. Tissue punches from the ipsilateral striatum and cortex were lysed in ice-cold Phosphate buffered saline (pH 7.4) containing phosphatase inhibitor, sonicated three times in five-second bursts and placed on ice (two minutes) between each burst of sonication. The lysed cell suspensions were centrifuged at 10,000 rpm (10 minutes) and the supernatant was collected in another tube. Equal amounts of protein from the supernatant were processed for PGE2 and MCP-1 levels using respective ELISA kit.
smiles,measurement,setting,value
N[C@@H](CCS)C(=O)O [L-homocysteine],concentration at 3 day,"[1]; day 3, basal 8.8±0.76 μM, read-out: total plasma homocysteine level",23.2 ± 0.52 µM
same,concentration at 5 day,"[1]; day 5, read-out: total plasma homocysteine level",23.6 ± 0.57 µM
same,concentration at 7 day,"[1]; day 7, read-out: total plasma homocysteine level",20.5 ± 0.88 µM
same,Fura2 fluorescence ratio and [Ca^2+]i,[2]; neurons from GluN2A KO mice,fails to increase Fura2 fluorescence ratio or [Ca^2+]i
same,Fura2 fluorescence ratio and [Ca^2+]i,[2]; neurons from WT mice,progressive increase in Fura2 fluorescence ratio and [Ca^2+]i
"C[C@H](NC(c1cccc2[nH]c(=O)c(=O)[nH]c12)P(=O)(O)O)c1ccc(Br)cc1 (stereo partly drawn) [NVP-AAM077, ({[(1S)-1-(4-bromophenyl)ethyl]amino}-(2,3-dioxo-1,4-dihydroquinoxalin-5-yl)methyl)phosphonic acid]",PGE2 level in ischemic hemisphere (cortex and striatum),[3],attenuated the increase in the level of both PGE2 and MCP-1
